Earlier results on two compounds are cited in patent US12557816B2, “Compositions for controlling a plant disease” (NutriAg Ltd., priority 2017, dated 2026).

For the data set the following is noted: phosphorous acid: second dissociation; hydrogen phosphite ion: conjugate base.

Turning to “hydrogen phosphite [hydrogen phosphite (or phosphonate) ion]”, the pKa result is “about 6.7”.

Regarding `OP(O)O` [Phosphorous acid, phosphorous acid], the pKa result is recorded as “about 1.3”.
